Test results taken from patent publication US8952024B2, “Herbicidal pyrimidone derivatives” (E I du Pont de Nemours and Company, priority 2009, dated 2015).

Assays:
Assay in all cases: Test B pre-/postemergence plant response
Type in all cases: in vivo
[1] = test system: Italian ryegrass (Lolium multiflorum); settings: for Ryegrass, Italian plant response rating (0 to 100 scale): 62 g ai/ha, postemergence, 0 is no effect, 100 is complete control; for Plant response rating, Ryegrass, Italian: Postemergence
Procedure, shortened: (§1)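 Plants treated either at seeding (loam/sand soil) or postemergence at 2 to 18 cm height, using a surfactant-containing non-phytotoxic solvent formulation. Evaluation was visual after 13 to 15 days, 0 to 100 scale relative to controls.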

[2] = test system: bermudagrass (Cynodon dactylon); settings: for Bermudagrass plant response rating (0 to 100 scale): 62 g ai/ha, postemergence, 0 is no effect, 100 is complete control; for Plant response rating, Bermudagrass: Postemergence
Procedure, shortened: as §1

[3] = test system: blackgrass (Alopecurus myosuroides); settings: for Blackgrass plant response rating (0 to 100 scale): 62 g ai/ha, postemergence, 0 is no effect, 100 is complete control; for Plant response rating, Blackgrass: Postemergence
Procedure, shortened: as §1

soybean (Glycine max) = settings: for Soybean plant response rating (0 to 100 scale): 62 g ai/ha, postemergence, 0 is no effect, 100 is complete control; for Plant response rating, Soybean: Postemergence
Procedure, shortened: as §1

[4] = test system: lambsquarters (Chenopodium album); settings: for Lambsquarters plant response rating (0 to 100 scale): 62 g ai/ha, postemergence, 0 is no effect, 100 is complete control; for Plant response rating, Lambsquarters: Postemergence
Procedure, shortened: as §1

[5] = test system: green foxtail (Setaria viridis); settings: for Foxtail, Green plant response rating (0 to 100 scale): 62 g ai/ha, postemergence, 0 is no effect, 100 is complete control; for Plant response rating, Foxtail, Green: Postemergence
Procedure, shortened: as §1

[6] = test system: cocklebur (Xanthium strumarium); settings: for Cocklebur plant response rating (0 to 100 scale): 62 g ai/ha, postemergence, 0 is no effect, 100 is complete control; for Plant response rating, Cocklebur: Postemergence
Procedure, shortened: as §1

[7] = test system: downy bromegrass (Bromus tectorum); settings: for Bromegrass, Downy plant response rating (0 to 100 scale): 62 g ai/ha, postemergence, 0 is no effect, 100 is complete control; for Plant response rating, Bromegrass, Downy: Postemergence
Procedure, shortened: as §1

kochia (Kochia scoparia) = settings: for Kochia plant response rating (0 to 100 scale): 62 g ai/ha, postemergence, 0 is no effect, 100 is complete control; for Plant response rating, Kochia: Postemergence
Procedure, shortened: as §1

[8] = test system: yellow nutsedge (Cyperus esculentus); settings: for Nutsedge, Yellow plant response rating (0 to 100 scale): 62 g ai/ha, postemergence, 0 is no effect, 100 is complete control; for Plant response rating, Nutsedge, Yellow: Postemergence
Procedure, shortened: as §1

[9] = test system: velvetleaf (Abutilon theophrasti); settings: for Velvetleaf plant response rating (0 to 100 scale): 62 g ai/ha, postemergence, 0 is no effect, 100 is complete control; for Plant response rating, Velvetleaf: Postemergence
Procedure, shortened: as §1

corn (Zea mays) = settings: for Corn plant response rating (0 to 100 scale): 62 g ai/ha, postemergence, 0 is no effect, 100 is complete control; for Plant response rating, Corn: Postemergence
Procedure, shortened: as §1

wild oat (Avena fatua) = settings: for Oat, Wild plant response rating (0 to 100 scale): 62 g ai/ha, postemergence, 0 is no effect, 100 is complete control; for Plant response rating, Oat, Wild: Postemergence
Procedure, shortened: as §1

[10] = test system: ragweed (common ragweed, Ambrosia elatior); settings: for Ragweed plant response rating (0 to 100 scale): 62 g ai/ha, postemergence, 0 is no effect, 100 is complete control; for Plant response rating, Ragweed: Postemergence
Procedure, shortened: as §1

[11] = test system: pigweed (Amaranthus retroflexus); settings: for Pigweed plant response rating (0 to 100 scale): 62 g ai/ha, postemergence, 0 is no effect, 100 is complete control; for Plant response rating, Pigweed: Postemergence
Procedure, shortened: as §1

[12] = test system: Surinam grass (Brachiaria decumbens); settings: for Surinam Grass plant response rating (0 to 100 scale): 62 g ai/ha, postemergence, 0 is no effect, 100 is complete control; for Plant response rating, Surinam Grass: Postemergence
Procedure, shortened: as §1

[13] = test system: large crabgrass (Digitaria sanguinalis); settings: for Crabgrass, Large plant response rating (0 to 100 scale): 62 g ai/ha, postemergence, 0 is no effect, 100 is complete control; for Plant response rating, Crabgrass, Large: Postemergence
Procedure, shortened: as §1

[14] = 31 g ai/ha, 0 to 100 scale (0 no effect, 100 complete control)
[15] = 125 g ai/ha, scale 0 to 100 (0 no effect, 100 complete control)
[16] = 250 g ai/ha, scale 0 to 100 (0 no effect, 100 complete control), 13 to 15 days

O=C1CCCC(O)=C1C(=O)c1cnc(-c2ccccc2)n(C2CCOCC2)c1=O [Compound 129]
Ryegrass, Italian plant response rating (0 to 100 scale) ([1]; 13 to 15 days): 0 | Plant response rating, Ryegrass, Italian [1, 14]: 0 | Plant response rating, Ryegrass, Italian [1, 15]: 0 | Plant response rating, Ryegrass, Italian [1, 16]: 0 | Bermudagrass plant response rating (0 to 100 scale) ([2]; 13 to 15 days): 80 | Plant response rating, Bermudagrass [2, 14]: 80 | Plant response rating, Bermudagrass [2, 15]: 95 | Plant response rating, Bermudagrass [2, 16]: 98 | Blackgrass plant response rating (0 to 100 scale) ([3]; 13 to 15 days): 5 | Plant response rating, Blackgrass [3, 14]: 0 | Plant response rating, Blackgrass [3, 15]: 5 | Plant response rating, Blackgrass [3, 16]: 5 | Soybean plant response rating (0 to 100 scale) (soybean (Glycine max); 13 to 15 days): 98 | Plant response rating, Soybean (soybean (Glycine max); [14]): 95 | Plant response rating, Soybean (soybean (Glycine max); [15]): 98 | Plant response rating, Soybean (soybean (Glycine max); [16]): 98 | Lambsquarters plant response rating (0 to 100 scale) ([4]; 13 to 15 days): 95 | Plant response rating, Lambsquarters [4, 14]: 90 | Plant response rating, Lambsquarters [4, 15]: 95 | Plant response rating, Lambsquarters [4, 16]: 98 | Foxtail, Green plant response rating (0 to 100 scale) ([5]; 13 to 15 days): 90 | Plant response rating, Foxtail, Green [5, 14]: 80 | Plant response rating, Foxtail, Green [5, 15]: 90 | Plant response rating, Foxtail, Green [5, 16]: 95 | Cocklebur plant response rating (0 to 100 scale) ([6]; 13 to 15 days): 98 | Plant response rating, Cocklebur [6, 14]: 95 | Plant response rating, Cocklebur [6, 15]: 98 | Plant response rating, Cocklebur [6, 16]: 100 | Bromegrass, Downy plant response rating (0 to 100 scale) ([7]; 13 to 15 days): 10 | Plant response rating, Bromegrass, Downy [7, 14]: 5 | Plant response rating, Bromegrass, Downy [7, 15]: 15 | Plant response rating, Bromegrass, Downy [7, 16]: 35 | Kochia plant response rating (0 to 100 scale) (kochia (Kochia scoparia); 13 to 15 days): 95 | Plant response rating, Kochia (kochia (Kochia scoparia); [14]): 80 | Plant response rating, Kochia (kochia (Kochia scoparia); [15]): 95 | Plant response rating, Kochia (kochia (Kochia scoparia); [16]): 98 | Nutsedge, Yellow plant response rating (0 to 100 scale) ([8]; 13 to 15 days): 35 | Plant response rating, Nutsedge, Yellow [8, 14]: 35 | Plant response rating, Nutsedge, Yellow [8, 15]: 60 | Plant response rating, Nutsedge, Yellow [8, 16]: 85 | Velvetleaf plant response rating (0 to 100 scale) ([9]; 13 to 15 days): 95 | Plant response rating, Velvetleaf [9, 14]: 95 | Plant response rating, Velvetleaf [9, 15]: 95 | Plant response rating, Velvetleaf [9, 16]: 100 | Corn plant response rating (0 to 100 scale) (corn (Zea mays); 13 to 15 days): 35 | Plant response rating, Corn (corn (Zea mays); [14]): 20 | Plant response rating, Corn (corn (Zea mays); [15]): 60 | Plant response rating, Corn (corn (Zea mays); [16]): 60 | Oat, Wild plant response rating (0 to 100 scale) (wild oat (Avena fatua); 13 to 15 days): 5 | Plant response rating, Oat, Wild (wild oat (Avena fatua); [14]): 0 | Plant response rating, Oat, Wild (wild oat (Avena fatua); [15]): 20 | Plant response rating, Oat, Wild (wild oat (Avena fatua); [16]): 30 | Ragweed plant response rating (0 to 100 scale) ([10]; 13 to 15 days): 95 | Plant response rating, Ragweed [10, 14]: 90 | Plant response rating, Ragweed [10, 15]: 95 | Plant response rating, Ragweed [10, 16]: 95 | Pigweed plant response rating (0 to 100 scale) ([11]; 13 to 15 days): 95 | Plant response rating, Pigweed [11, 14]: 85 | Plant response rating, Pigweed [11, 15]: 98 | Plant response rating, Pigweed [11, 16]: 98 | Surinam Grass plant response rating (0 to 100 scale) ([12]; 13 to 15 days): 85 | Plant response rating, Surinam Grass [12, 14]: 80 | Plant response rating, Surinam Grass [12, 15]: 85 | Plant response rating, Surinam Grass [12, 16]: 85 | Crabgrass, Large plant response rating (0 to 100 scale) ([13]; 13 to 15 days): 80 | Plant response rating, Crabgrass, Large [13, 14]: 80 | Plant response rating, Crabgrass, Large [13, 15]: 85 | Plant response rating, Crabgrass, Large [13, 16]: 85

O=C1CCCC(O)=C1C(=O)c1cnc(-c2ccccc2)n(C2CCCCCC2)c1=O [Compound 130]
Ryegrass, Italian plant response rating (0 to 100 scale) ([1]; 13 to 15 days): 0 | Plant response rating, Ryegrass, Italian [1, 14]: 0 | Plant response rating, Ryegrass, Italian [1, 15]: 0 | Plant response rating, Ryegrass, Italian [1, 16]: 5 | Bermudagrass plant response rating (0 to 100 scale) ([2]; 13 to 15 days): 90 | Plant response rating, Bermudagrass [2, 14]: 75 | Plant response rating, Bermudagrass [2, 15]: 90 | Plant response rating, Bermudagrass [2, 16]: 95 | Blackgrass plant response rating (0 to 100 scale) ([3]; 13 to 15 days): 5 | Plant response rating, Blackgrass [3, 14]: 0 | Plant response rating, Blackgrass [3, 15]: 5 | Plant response rating, Blackgrass [3, 16]: 5 | Soybean plant response rating (0 to 100 scale) (soybean (Glycine max); 13 to 15 days): 98 | Plant response rating, Soybean (soybean (Glycine max); [14]): 98 | Plant response rating, Soybean (soybean (Glycine max); [15]): 98 | Plant response rating, Soybean (soybean (Glycine max); [16]): 100 | Lambsquarters plant response rating (0 to 100 scale) ([4]; 13 to 15 days): 100 | Plant response rating, Lambsquarters [4, 14]: 98 | Plant response rating, Lambsquarters [4, 15]: 100 | Plant response rating, Lambsquarters [4, 16]: 100 | Foxtail, Green plant response rating (0 to 100 scale) ([5]; 13 to 15 days): 90 | Plant response rating, Foxtail, Green [5, 14]: 90 | Plant response rating, Foxtail, Green [5, 15]: 95 | Plant response rating, Foxtail, Green [5, 16]: 98 | Cocklebur plant response rating (0 to 100 scale) ([6]; 13 to 15 days): 95 | Plant response rating, Cocklebur [6, 14]: 85 | Plant response rating, Cocklebur [6, 15]: 95 | Plant response rating, Cocklebur [6, 16]: 100 | Bromegrass, Downy plant response rating (0 to 100 scale) ([7]; 13 to 15 days): 15 | Plant response rating, Bromegrass, Downy [7, 14]: 10 | Plant response rating, Bromegrass, Downy [7, 15]: 35 | Plant response rating, Bromegrass, Downy [7, 16]: 40 | Kochia plant response rating (0 to 100 scale) (kochia (Kochia scoparia); 13 to 15 days): 85 | Plant response rating, Kochia (kochia (Kochia scoparia); [14]): 85 | Plant response rating, Kochia (kochia (Kochia scoparia); [15]): 100 | Plant response rating, Kochia (kochia (Kochia scoparia); [16]): 100 | Nutsedge, Yellow plant response rating (0 to 100 scale) ([8]; 13 to 15 days): 20 | Plant response rating, Nutsedge, Yellow [8, 14]: 10 | Plant response rating, Nutsedge, Yellow [8, 15]: 35 | Plant response rating, Nutsedge, Yellow [8, 16]: 40 | Velvetleaf plant response rating (0 to 100 scale) ([9]; 13 to 15 days): 95 | Plant response rating, Velvetleaf [9, 14]: 95 | Plant response rating, Velvetleaf [9, 15]: 98 | Plant response rating, Velvetleaf [9, 16]: 100 | Corn plant response rating (0 to 100 scale) (corn (Zea mays); 13 to 15 days): 60 | Plant response rating, Corn (corn (Zea mays); [14]): 55 | Plant response rating, Corn (corn (Zea mays); [15]): 80 | Plant response rating, Corn (corn (Zea mays); [16]): 80 | Oat, Wild plant response rating (0 to 100 scale) (wild oat (Avena fatua); 13 to 15 days): 30 | Plant response rating, Oat, Wild (wild oat (Avena fatua); [14]): 20 | Plant response rating, Oat, Wild (wild oat (Avena fatua); [15]): 40 | Plant response rating, Oat, Wild (wild oat (Avena fatua); [16]): 60 | Ragweed plant response rating (0 to 100 scale) ([10]; 13 to 15 days): 90 | Plant response rating, Ragweed [10, 14]: 85 | Plant response rating, Ragweed [10, 15]: 98 | Plant response rating, Ragweed [10, 16]: 98 | Pigweed plant response rating (0 to 100 scale) ([11]; 13 to 15 days): 98 | Plant response rating, Pigweed [11, 14]: 95 | Plant response rating, Pigweed [11, 15]: 100 | Plant response rating, Pigweed [11, 16]: 100 | Surinam Grass plant response rating (0 to 100 scale) ([12]; 13 to 15 days): 80 | Plant response rating, Surinam Grass [12, 14]: 80 | Plant response rating, Surinam Grass [12, 15]: 80 | Plant response rating, Surinam Grass [12, 16]: 90 | Crabgrass, Large plant response rating (0 to 100 scale) ([13]; 13 to 15 days): 85 | Plant response rating, Crabgrass, Large [13, 14]: 85 | Plant response rating, Crabgrass, Large [13, 15]: 95 | Plant response rating, Crabgrass, Large [13, 16]: 100
